Source: ChEMBL document CHEMBL1156032, “Potent small molecule mouse CD22-inhibitors: exploring the interaction of the residue at C-2 of sialic acid scaffold” (Bioorg Med Chem Lett, 2009)
pIC50: −log10 of the molar value.

Columns and labels:
B-cell receptor CD22 = target: T1, B-cell receptor CD22 (Mus musculus, UniProt P35329); assay: Binding affinity to mouse CD22 after 1 hr by competition ELISA
T1 sequence (P35329 whole entry): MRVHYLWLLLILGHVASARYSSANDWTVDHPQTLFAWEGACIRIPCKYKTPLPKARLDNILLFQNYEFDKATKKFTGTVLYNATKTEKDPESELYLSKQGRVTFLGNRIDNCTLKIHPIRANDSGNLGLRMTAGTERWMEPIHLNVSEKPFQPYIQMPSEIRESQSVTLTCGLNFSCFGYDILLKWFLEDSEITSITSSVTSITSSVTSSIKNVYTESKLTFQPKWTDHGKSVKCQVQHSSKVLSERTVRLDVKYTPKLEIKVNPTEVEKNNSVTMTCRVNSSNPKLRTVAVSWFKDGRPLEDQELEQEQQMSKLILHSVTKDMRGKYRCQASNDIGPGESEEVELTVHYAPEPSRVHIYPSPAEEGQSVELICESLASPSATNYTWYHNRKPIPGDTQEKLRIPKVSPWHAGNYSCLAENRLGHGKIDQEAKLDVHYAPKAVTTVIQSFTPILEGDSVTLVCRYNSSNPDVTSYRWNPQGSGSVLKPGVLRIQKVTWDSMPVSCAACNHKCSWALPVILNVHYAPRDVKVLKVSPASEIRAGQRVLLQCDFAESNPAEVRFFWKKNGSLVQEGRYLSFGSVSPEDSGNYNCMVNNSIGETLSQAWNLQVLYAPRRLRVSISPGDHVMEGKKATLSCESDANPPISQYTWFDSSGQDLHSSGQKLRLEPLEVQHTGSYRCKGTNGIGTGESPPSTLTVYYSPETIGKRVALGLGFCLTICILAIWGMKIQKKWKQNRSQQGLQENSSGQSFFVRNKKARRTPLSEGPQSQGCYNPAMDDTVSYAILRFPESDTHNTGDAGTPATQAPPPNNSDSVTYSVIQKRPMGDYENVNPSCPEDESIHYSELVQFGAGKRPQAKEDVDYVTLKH

[1] = target: T2, B-cell receptor CD22 (Mus musculus) (UniProt P35329); assay: Ratio of 9-([…]-4-biphenyl)acetamido-9-deoxy- Neu5Gca2-6GalOMP IC50 to compound IC50 for mouse CD22 after 1 hr by competition ELISA
T2 sequence (whole entry): T1 sequence (P35329 whole entry)

pIC50 (B-cell receptor CD22) | Ratio IC50 [1] | SMILES
3.26 |  | C[Si](C)(C)CCO[C@@H]1O[C@H](CO[C@]2(C(=O)O)C[C@H](O)[C@H](NC(=O)CO)[C@H]([C@H](O)[C@H](O)CO)O2)[C@H](O)[C@H](O)[C@H]1O
 | 1 | COc1ccc(O[C@@H]2O[C@H](CO[C@]3(C(=O)O)C[C@H](O)[C@H](NC(=O)CO)[C@H]([C@H](O)[C@H](O)CNC(=O)Cc4ccc(-c5ccc(O)cc5)cc4)O3)[C@H](O)[C@H](O)[C@H]2O)cc1
6.72 | 20.2 | O=C(Cc1ccc(-c2ccc(O)cc2)cc1)NC[C@@H](O)[C@@H](O)[C@@H]1O[C@@](OCc2ccc(-c3ccccc3)cc2)(C(=O)O)C[C@H](O)[C@@H]1NC(=O)CO
7.00 | 38.4 | O=C(Cc1ccc(-c2ccc(O)cc2)cc1)NC[C@@H](O)[C@@H](O)[C@@H]1O[C@@](OCc2ccccc2)(C(=O)O)C[C@H](O)[C@@H]1NC(=O)CO
3.52 |  | COc1ccc(O[C@@H]2O[C@H](CO[C@]3(C(=O)O)C[C@H](O)[C@H](NC(=O)CO)[C@H]([C@H](O)[C@H](O)CO)O3)[C@H](O)[C@H](O)[C@H]2O)cc1
4.08 |  | COc1ccc(O[C@@H]2O[C@H](CO[C@]3(C(=O)O)C[C@H](O)[C@H](NC(=O)CO)[C@H]([C@H](O)[C@H](O)CN)O3)[C@H](O)[C@H](O)[C@H]2O)cc1

SMILES | pIC50 (B-cell receptor CD22) | Ratio IC50 [1]
CC(=O)N[C@@H]1[C@H]([C@H](O)[C@H](O)CO)O[C@@](OC[C@H]2O[C@@H](OCC[Si](C)(C)C)[C@H](O)[C@@H](O)[C@H]2O)(C(=O)O)C[C@@H]1O | < 3.00 | 
